Data from patent US4151283A, “6-Methyl-and 1,6-dimethyl-8β-carbobenzyloxy-aminomethyl-10α-ergoline as inhibitors of prolactin secretion” (Societa' Farmaceutici Italia S.p.A., priority 1977, dated 1979).

Key:
[1] = system: lactation; assay: Lactation inhibition in rats (anti-lactation activity); type: in vivo; conditions: Rattus norvegicus, po, methane-sulfonic salt, 6th and 7th days, approximate (.congruent.); read-out: ED50, lactation inhibition (50% reduction of gain in weight of the litters)
Experimental: Adult pregnant female rats were individually caged about 6 days before parturition. The day after parturition (day 1), the number of pups was adjusted to eight. The gain in weight of the litters was measured daily.
The test compounds as methane-sulfonic salts were administered orally to groups of eight mother rats on the 6th and 7th days immediately after the weighing of the litters. The control mothers were treated with the vehicle alone.
The percentage of lactation inhibition was calculated from the mean gain in weight of the litters on the 7th and 8th days in comparison with the results for the 5th and 6th days.
No lactation inhibition was present on the 7th and 8th days in the vehicle-treated (control) group.
The doses capable of reducing to 50% the gain in weight of the litters (ED50) are reported below in Table II.

[2] = system: nidation (implantation sites); assay: Nidation inhibition in rats (anti-nidation activity); type: in vivo, rat (Sprague-Dowley strain); conditions: Rattus norvegicus, methane-sulphonic salt, given on 3rd day, approximate (.congruent.)
Experimental: Adult female rats, of the Sprague-Dowley strain, in proestrus were mated with fertile males and their vaginal smears were examined the next morning.
The presence of spermatozoa was considered evidence of impregnation and onset of pregnancy (day 1).
The compounds were administered orally or intraperitoneally as methane-sulphonic salts to groups of six to eight rats on the 3rd day.
On the 14th day the animals were sacrificed and the uterus was examined for the presence of implantation sites.
The absence of implantation sites was the criterion of activity.
Several doses were tested for the ED50 evaluation.

[3] = system: puerperal lactation; assay: Inhibition of puerperal lactation in women (clinical evaluation); type: in vivo, human (puerperal women)
Experimental: The invention concerns a novel method of inhibiting lactation in puerperal women by administering metergoline.
Metergoline was administered at a dose of 8 mg/day (4 mg at 0.800 and 4 mg at 2000) to these women: 10 women were treated with a placebo.

[4] = Emetic activity in dogs; type: in vivo, dog (male beagle); conditions: dog, in vivo, methane-sulphonic salt, approximate (.congruent.), read-out: ED50, emetic activity; for TD50 at 2 h: iv, observed 2 hours; for TD50 at 6 h: po, observed 6 hours
Experimental: (§1) The emetic activity of the compounds was examined by intravenous and oral administration to male beagle dogs weighing 15-20 kg. The compounds were administered as the methane-sulphonic salts. […] Five to six animals per dose were employed for the ED50 evaluation.

[5] = system: emesis; assay: Emetic activity in dogs; type: in vivo, dog (male beagle); conditions: dogs, both routes of administration (Table III), in words
Experimental: as §1

[6] = system: prolactin (PRL) release; conditions: cited from earlier work
[7] = system: lactation; conditions: in rats, literature (Fluckiger and Wagner 1968), in words; cited from earlier work
[8] = system: nidation (implantation sites); conditions: in rats, literature (Fluckiger and Wagner 1968), in words; cited from earlier work
[9] = system: puerperal lactation; conditions: comparison drug, no own test described; cited from earlier work
[10] = system: prolactin; conditions: literature (Brooks and Welsch 1974), in words; cited from earlier work
[11] = system: prolactin (PRL) release; conditions: cited from earlier work; remark: listed apart in the source

## CN1C[C@H](CNC(=O)OCc2ccccc2)C[C@@H]2c3cccc4c3c(cn4C)C[C@H]21 [Metergoline, 1,6-Dimethyl-8β-carbobenzyloxy-aminomethyl-10α-ergoline]
[1]
  ED50: 12.5 to 25 mg/kg
[2]; ip
  ED50: 16 to 32 mg/kg
[2]; po
  ED50: ~25 mg/kg
[3]; 8 mg/day (4 mg twice), 5 days
  women in whom five days of treatment prevented or suppressed lactation: 69 women
[3]; 8 mg/day, second course of 5 additional days
  remaining women in whom a second course definitely inhibited every sign of mammary activity: 9 women
[3]; 5 days of treatment
  cases in which the necessary treatment period is 5 days: 88.5%
[3]; in 88.5% of cases
  treatment period necessary: 5 days
[3]; women, 8 mg/day, in words
  tolerability / side-effects: perfectly tolerated and devoid of any side-effect
[4]
  TD50 at 2 h: > 8 mg/kg
  TD50 at 6 h: 4 to 8 mg/kg
[5]
  emetic tolerability versus reference standard III: clearly better tolerated than the reference standard III

## N[C@@H](Cc1c[nH]c2ccc(O)cc12)C(=O)O [5 hydroxytryptophan]
[6]
  effect on PRL release in man: stimulates PRL release

## CC(C)C[C@H]1C(=O)N2CCC[C@H]2[C@]2(O)O[C@](NC(=O)[C@@H]3C=C4c5cccc6[nH]c(Br)c(c56)C[C@H]4N(C)C3)(C(C)C)C(=O)N12 [Bromocriptine, 2-Br-α-ergocriptine, reference compound]
[1]
  ED50: 8 to 16 mg/kg
[2]; ip
  ED50: 16 to 32 mg/kg
[2]; po
  ED50: 8 to 16 mg/kg
[7]
  anti-lactation activity: well known both for its anti-nidation and anti-lactation activity in rats
[8]
  anti-nidation activity: well known both for its anti-nidation and anti-lactation activity in rats
[9]
  treatment period required: 14 days
[10]
  anti-prolactin activity: anti-prolactin activity
[4]
  TD50 at 2 h: ~0.007 mg/kg
  TD50 at 6 h: < 0.03 mg/kg

## NCCc1c[nH]c2ccc(O)cc12 [serotonin (5HT), 5-hydroxytryptamine]
[11]
  effect on PRL release in animals: stimulates prolactin (PRL) release

## CN1C[C@H](CNC(=O)OCc2ccccc2)C[C@@H]2c3cccc4[nH]cc(c34)C[C@H]21 [1-Demethyl-metergoline, 6-Methyl-8β-carbobenzyloxy-aminomethyl-10α-ergoline]
[1]
  ED50: 4 to 8 mg/kg
[2]; po
  ED50: 4 to 8 mg/kg
[4]
  TD50 at 2 h: 0.05 to 0.1 mg/kg
  TD50 at 6 h: 0.2 to 0.4 mg/kg
[5]
  emetic tolerability versus reference standard III: clearly better tolerated than the reference standard III

## CC[C@@H](CO)NC(=O)[C@@H]1C=C2c3cccc4c3c(cn4C)C[C@H]2N(C)C1 [methysergide]
[6]; in man
  effect on 5-hydroxytryptophan-stimulated PRL release: partially inhibited
